In US20230339991A1, “HYPOXIA-ACTIVATED DNA ALKYLATING AGENT AND MEDICAL USE THEREOF” (ASCENTAWITS PHARMACEUTICALS, LTD., priority 2020, published 2023):

Columns and labels:
NCI-H2228 = experiment: Cytotoxicity, NSCLC cell line NCI-H2228; assay type: cell-based; conditions: Homo sapiens
Description: (§1) Compounds were exposed at various concentrations for 72 hours, followed by a wash step. Fresh medium was added for growth. The cell was stained to determine the cell survival rate and compared with controls treated with medium only.
(§2) In particular, exponentially grown cells were inoculated in 96-well plates at a density of 2×10^3 cells/100 μl/well and incubated for 24 hours at 37° C. and under the conditions of 5% CO2, 95% air and 100% relative humidity before addition of 99 μl of culture solution. The compounds were dissolved in 100% DMSO at 200 times of the desired final test concentration. When the drug was added, an aliquot of 1 μl of the compound at the specified concentration was added to microwells already containing 199 μl of medium to obtain the reported final drug concentration. After adding the drug, plates were incubated for an additional 72 hours at 37° C., 5% CO2, 95% air and 100% relative humidity. The cell assay plate was left to balance for 30 minutes at room temperature and 100 μL of medium was removed from per well. 100 μl CTG reagent (CelltiterGlo kit) was added into each well. The plate was placed on a fast shaker and shaked for 2 min, and kept in dark at room temperature for 30 min. The chemiluminescence signal value was read by Envision instrument. […]

NCIH1755 = experiment: Cytotoxicity, NSCLC cell line NCIH1755; assay type: cell-based; conditions: Homo sapiens, NCI-H1755
Description: as §1, §2

NCI-H1563 = experiment: Cytotoxicity, NSCLC cell line NCI-H1563; assay type: cell-based; conditions: Homo sapiens
Description: as §1, §2

CAL12T = experiment: Cytotoxicity, NSCLC cell line CAL12T; assay type: cell-based; conditions: Homo sapiens, CAL-12T
Description: as §1, §2

NCIH2106 = experiment: Cytotoxicity, NSCLC cell line NCIH2106; assay type: cell-based; conditions: Homo sapiens
Description: as §1, §2

NCI-H23 = experiment: Cytotoxicity, NSCLC cell line NCI-H23; assay type: cell-based; conditions: Homo sapiens
Description: as §1, §2

NCI-H2110 = experiment: Cytotoxicity, NSCLC cell line NCI-H2110; assay type: cell-based; conditions: Homo sapiens
Description: as §1, §2

NCI-H1792 = experiment: Cytotoxicity, NSCLC cell line NCI-H1792; assay type: cell-based; conditions: Homo sapiens
Description: as §1, §2

AsPC-1 = experiment: Cytotoxicity, pancreatic cancer PA cells AsPC-1; assay type: cell-based; conditions: Homo sapiens, ASPC1
Description: as §1, §2

CFPAC1 = experiment: Cytotoxicity, pancreatic cancer PA cells CFPAC1; assay type: cell-based; conditions: Homo sapiens, CFPAC-1
Description: as §1, §2

Capan-1 = experiment: Cytotoxicity, pancreatic cancer PA cells Capan-1; assay type: cell-based; conditions: Homo sapiens
Description: as §1, §2

Panc 02.03 = experiment: Cytotoxicity, pancreatic cancer PA cells Panc 02.03; assay type: cell-based; conditions: Homo sapiens
Description: as §1, §2

KP-4 = experiment: Cytotoxicity, pancreatic cancer PA cells KP-4; assay type: cell-based; conditions: Homo sapiens
Description: as §1, §2

[1] = test system: human lung cancer NCI-H460 subcutaneous xenograft; experiment: Human lung cancer NCI-H460 subcutaneous xenograft model, compound A; assay type: in vivo, BALB/c nude mice
Description: BALB/c nude mice were subcutaneously inoculated with human lung cancer NCI-H460 cells to establish human lung cancer subcutaneous transplantation tumor model. […] The test drug compound A 40 mg/kg group was administered by tail vein injection once every three weeks for 2 times, and observed for one week after the second administration. The test drug compound A 20 mg/kg group was administered by intraperitoneal injection once a day for 5 days continuously, and observed for 24 days. […] The administration dosage of compound A was determined according to the MTD test.
The tumor volumes of mice from each group were measured at different days and the average values were taken.

[2] = test system: human liver cancer HepG2 subcutaneous xenograft; experiment: Human liver cancer HepG2 subcutaneous xenograft model; assay type: in vivo, BALB/c nude mice; conditions: for relative tumor inhibition rate TGI (%): QW×3, tail vein, Day 45
Excerpt: BALB/c nude mice were subcutaneously inoculated with human liver cancer HepG2 cells to establish human liver cancer subcutaneous transplantation tumor model.

[3] = Liver microsome stability, monkey
Description: 1) Two individual experiments were performed.
1a) With NADPH: 10 μL of 20 mg/mL liver microsomes and 40 μL of 10 mM NADPH were added to the culture solution. The final concentrations of microsomes and NADPH were 0.5 mg/mL and 1 mM, respectively.
1b) Without NADPH: 10 μL of 20 mg/mL liver microsomes and 40 μL of ultrapure H2O were added to the culture solution. The final concentration of microsomes was 0.5 mg/mL.
3) 50 μL of aliquots were taken from the reaction solution at 0 min and 30 min. The reaction was terminated by adding 4 volumes of cold acetonitrile and four internal standards (IS, 100 nM alprazolam, 200 nM caffeine, 200 nM labetalol and 2 μM ketoprofen). The samples were centrifuged at 3, 220×g for 40 min. The aliquots of 100 μL of supernatant were mixed with 100 μL of ultrapure H2O and then used for LC-MS/MS analysis. All experiments were performed in duplicate.

O=[N+]([O-])c1ccc(C(OP(=O)(N2CC2)N2CC2)C(F)(F)F)c2ccccc12 (racemic) [Compound A]
IC50 (NCI-H2228): 0.264 µM | IC50 (NCIH1755): 6.46 µM | IC50 (NCI-H1563): 4.45 µM | IC50 (CAL12T): 30.5 µM | IC50 (NCIH2106): 14.8 µM | IC50 (NCI-H23): 6.41 µM | IC50 (NCI-H2110): 0.382 µM | IC50 (NCI-H1792): 4.79 µM | IC50 (AsPC-1): 12.6 µM | IC50 (CFPAC1): 2.86 µM | IC50 (Capan-1): 5.97 µM | IC50 (Panc 02.03): 45.7 µM | IC50 (KP-4): 6.1 µM | relative tumor inhibition rate TGI (%) ([1]; 40 mg/kg, Q3W×2, IV, Day31): 66.87% | tumor volume ([1]; Test Group 7, 40 mg/kg IV, day 10): 184.06 mm^3 | tumor volume ([1]; Test Group 7, 40 mg/kg IV, day 14): 153.75 mm^3 | tumor volume ([1]; Test Group 7, 40 mg/kg IV, day 17): 159.72 mm^3 | tumor volume ([1]; Test Group 7, 40 mg/kg IV, day 21): 218.13 mm^3 | tumor volume ([1]; Test Group 7, 40 mg/kg IV, day 24): 291.07 mm^3 | tumor volume ([1]; Test Group 7, 40 mg/kg IV, day 28): 520.17 mm^3 | tumor volume ([1]; Test Group 7, 40 mg/kg IV, day 31): 580.70 mm^3 | tumor volume ([1]; Test Group 7, 40 mg/kg IV, day 35): 447.32 mm^3 | tumor volume ([1]; Test Group 7, 40 mg/kg, Q3W×2, IV, day 7): 143.84 mm^3 | tumor volume ([1]; Test Group 8, 20 mg/kg IP, day 10): 173.09 mm^3 | tumor volume ([1]; Test Group 8, 20 mg/kg IP, day 14): 152.99 mm^3 | tumor volume ([1]; Test Group 8, 20 mg/kg IP, day 17): 130.06 mm^3 | tumor volume ([1]; Test Group 8, 20 mg/kg IP, day 21): 129.66 mm^3 | tumor volume ([1]; Test Group 8, 20 mg/kg IP, day 24): 164.63 mm^3 | tumor volume ([1]; Test Group 8, 20 mg/kg IP, day 28): 272.20 mm^3 | tumor volume ([1]; Test Group 8, 20 mg/kg IP, day 31): 447.50 mm^3 | tumor volume ([1]; Test Group 8, 20 mg/kg IP, day 35): 651.58 mm^3 | tumor volume ([1]; Test Group 8, 20 mg/kg, QD×5×1 week, IP, day 7): 144.63 mm^3

O=[N+]([O-])c1ccc([C@@H](OP(=O)(N2CC2)N2CC2)C(F)(F)F)c2ccccc12 (single isomer, unassigned) [Compound C]
cure rate ([2]; 20 mg/kg (Group 5)): 20% | relative tumor inhibition rate TGI (%) ([2]; 20 mg/kg): 33.10% | cure rate ([2]; 40 mg/kg (Group 6)): 20% | relative tumor inhibition rate TGI (%) ([2]; 40 mg/kg): 75.59%

CC(OP(=O)(N1CC1)N1CC1)c1ccc([N+](=O)[O-])c2ccccc12 (centres unmarked) [Compound D]
Remaining percentage after 30 minutes ([3]; with NADPH): 0.86% | Remaining percentage after 30 minutes ([3]; without NADPH): 95.89%
